# Measured values reported in patent US20220267380A1, “Glycopeptides Increasing Lipid Synthesis” (TFCHEM, priority 2019, published 2022).
# System: normal human dermal fibroblasts (NHDF)
# Assay: Gene expression in NHDF, full transcriptome analysis with Affymetrix U219 microarray
# Type: cell-based
# Settings: NHDF
# Procedure: In the present study, the transcriptional effects (modulation of gene expression) of compounds 1, 2, 3 and 4 were evaluated on normal human dermal fibroblasts (NHDF) under basal conditions.
# More specifically, the comparative analysis of the different transcriptomic profiles was performed using an Affymetrix GeneAtlas platform and the human “full transcriptome” U219 chip, which includes 36,000 transcripts and variants.
# Fibroblasts were seeded in 24-well plates and cultured in culture medium for 24 hours. The medium was then replaced by assay medium and cells were incubated for further 24 hours. The medium was replaced by assay medium containing or not (control) the test compounds at different concentrations and the cells were preincubated for 24 hours. All experimental conditions were performed in triplicate. At the end of incubation, the culture supernatants were removed and the cells were washed in a phosphate buffered saline (PBS) solution and immediately frozen at −80° C.
# Before RNA extraction, the replicates were pooled. Total RNA was extracted from each sample using TriPure Isolation Reagent® according to the supplier's instructions. The amount and quality of total RNA were evaluated for all samples using capillary electrophoresis (Bioanalyzer 2100, Agilent technologies). From each RNA, a labeled and amplified anti-sens RNA (aRNA) was obtained using GeneChip 3′IVT PLUS Kit (Affymetrix). For each labeled and amplified aRNA sample the profiles were evaluated before and after fragmentation using capillary electrophoresis (Bioanalyzer 2100, Agilent technologies). Hybridization of fragmented aRNA onto Affymetrix® U219 chip (36,000 transcripts and variants) was performed in the GeneAtlas™ fluidics Affymetrix® hybridization station for 20 hours at 45° C. U219 chip was analyzed using the GeneAtlas™ Imaging station (Affymetrix®—resolution 2 μm) to generate fluorescence intensity data.
# Expression Console and Quality controls: data were normalized with the Expression Console (Affymetrix®) software using RMA algorithm. Then a quality control of the labeling and the hybridization was performed. Hybridization and labeling steps successfully passed the quality controls for these experiments.
# Data reduction, Excel file description: once normalized with Expression Console, data were transferred into a Microsoft Excel® file in order to go further into data reduction.
# Calculation and tools were added in order to rank and sort data, and finally to support data interpretation. Detection thresholds in terms of fold change were defined and applied on normalized data.
# Results are considered and presented or commented per gene (and not probe). A probe set is a collection of probes designed to interrogate a given sequence of a gene. For data interpretation, the most important relative expression value obtained with one probe is considered to be representative of the corresponding gene. The file contains the following data: • Relative expression (RE) for each sample, • Fold change calculation, • Gene information.
# [1] = relative expression adjusted to detection limit (<20), 10 mg/ml, 24 h
structure (smiles),measurement,setting,value
C[C@H](NC(=O)[C@H](C)NC(=O)[C@@H](N)CCCCNCC(F)(F)[C@]1(O)O[C@H](CO)[C@H](O)[C@H](O)[C@H]1O)C(=O)O [Compound 1],effect of treatment of NHDF on lipid synthesis (transcriptional),,up regulation of lipid and cholesterol synthesis
same,"Fold change, ABCA1","10 mg/ml, 24 h, vs control",2.11
same,"Fold change, ABHD4","10 mg/ml, 24 h, vs control",2.05
same,"Fold change, ABHD5","10 mg/ml, 24 h, vs control",2.63
same,"Fold change, ACAT2","10 mg/ml, 24 h, vs control",2.12
same,"Fold change, AKR1C1","10 mg/ml, 24 h, vs control",2.13
same,"Fold change, AKR1C2","10 mg/ml, 24 h, vs control",2.60
same,"Fold change, CH25H","10 mg/ml, 24 h, vs control",0.36
same,"Fold change, CYP51A1///LRRD1","10 mg/ml, 24 h, vs control",2.20
same,"Fold change, DHCR7","10 mg/ml, 24 h, vs control",3.68
same,"Fold change, HMGCR","10 mg/ml, 24 h, vs control",2.02
same,"Fold change, HSD17B7","10 mg/ml, 24 h, vs control",2.44
same,"Fold change, HSD17B14","10 mg/ml, 24 h, vs control",2.00
same,"Fold change, IDI1","10 mg/ml, 24 h, vs control",2.01
same,"Fold change, LPIN1","10 mg/ml, 24 h, vs control",2.46
same,"Fold change, LRP8","10 mg/ml, 24 h, vs control",2.95
same,"Fold change, MSMO1","10 mg/ml, 24 h, vs control",2.03
same,"Fold change, MVD","10 mg/ml, 24 h, vs control",2.45
same,"Fold change, NEU1","10 mg/ml, 24 h, vs control",2.74
same,"Fold change, PCYT2","10 mg/ml, 24 h, vs control",2.41
same,"Fold change, PLD1","10 mg/ml, 24 h, vs control",2.15
same,"Fold change, PTPLA","10 mg/ml, 24 h, vs control",2.31
same,"Fold change, SOAT1","10 mg/ml, 24 h, vs control",2.01
same,"Fold change, SREBF1","10 mg/ml, 24 h, vs control",3.24
same,"Fold change, DHCR24","10 mg/ml, 24 h, vs control, probe set 11715460_a_at",2.05
same,"Fold change, POR","10 mg/ml, 24 h, vs control, probe set 11716114_x_at",2.20
same,"Fold change, INSIG1","10 mg/ml, 24 h, vs control, probe set 11716337_s_at",2.46
same,"Fold change, INSIG1","10 mg/ml, 24 h, vs control, probe set 11716338_a_at",3.42
same,"Fold change, INSIG1","10 mg/ml, 24 h, vs control, probe set 11716339_a_at",3.38
same,"Fold change, HMGCS1","10 mg/ml, 24 h, vs control, probe set 11716987_a_at",3.15
same,"Fold change, APOD","10 mg/ml, 24 h, vs control, probe set 11717295_s_at",0.30
same,"Fold change, LSS","10 mg/ml, 24 h, vs control, probe set 11717620_a_at",2.08
same,"Fold change, EBP","10 mg/ml, 24 h, vs control, probe set 11717859_a_at",2.68
same,"Fold change, FDPS","10 mg/ml, 24 h, vs control, probe set 11718366_s_at",2.02
same,"Fold change, MVK","10 mg/ml, 24 h, vs control, probe set 11719098_a_at",2.08
same,"Fold change, GBA///GBAP1","10 mg/ml, 24 h, vs control, probe set 11719908_a_at",2.93
same,"Fold change, LDLR","10 mg/ml, 24 h, vs control, probe set 11720028_x_at",2.53
same,"Fold change, LDLR","10 mg/ml, 24 h, vs control, probe set 11720029_a_at",2.11
same,"Fold change, PTGS1","10 mg/ml, 24 h, vs control, probe set 11722208_a_at",2.77
same,"Fold change, PTGS1","10 mg/ml, 24 h, vs control, probe set 11722209_a_at",2.62
same,"Fold change, PTGS1","10 mg/ml, 24 h, vs control, probe set 11722210_a_at",3.14
same,"Fold change, LSS","10 mg/ml, 24 h, vs control, probe set 11724199_x_at",2.21
same,"Fold change, PGS1","10 mg/ml, 24 h, vs control, probe set 11724792_a_at",2.01
same,"Fold change, KDSR","10 mg/ml, 24 h, vs control, probe set 11730180_s_at",2.16
same,"Fold change, KDSR","10 mg/ml, 24 h, vs control, probe set 11730181_s_at",2.29
same,"Fold change, LSS","10 mg/ml, 24 h, vs control, probe set 11731324_a_at",2.53
same,"Fold change, GBA","10 mg/ml, 24 h, vs control, probe set 11736100_a_at",2.74
same,"Fold change, CHKA","10 mg/ml, 24 h, vs control, probe set 11736285_a_at",2.27
same,"Fold change, CHKA","10 mg/ml, 24 h, vs control, probe set 11736286_a_at",3.00
same,"Fold change, PHLDB2","10 mg/ml, 24 h, vs control, probe set 11737039_a_at",2.96
same,"Fold change, PHLDB2","10 mg/ml, 24 h, vs control, probe set 11737041_a_at",2.45
same,"Fold change, PHLDB2","10 mg/ml, 24 h, vs control, probe set 11737042_s_at",2.97
same,"Fold change, PHLDB2","10 mg/ml, 24 h, vs control, probe set 11737043_x_at",2.47
same,"Fold change, NPC1","10 mg/ml, 24 h, vs control, probe set 11743916_a_at",6.53
same,"Fold change, FADS2","10 mg/ml, 24 h, vs control, probe set 11744899_a_at",2.64
same,"Fold change, FADS2","10 mg/ml, 24 h, vs control, probe set 11744902_a_at",2.09
same,"Fold change, FADS1///MIR1908","10 mg/ml, 24 h, vs control, probe set 11745459_a_at",4.20
same,"Fold change, LPCAT3","10 mg/ml, 24 h, vs control, probe set 11746281_a_at",2.31
same,"Fold change, NPC1","10 mg/ml, 24 h, vs control, probe set 11746723_a_at",4.53
same,"Fold change, LDLR","10 mg/ml, 24 h, vs control, probe set 11746974_a_at",2.99
same,"Fold change, MVK","10 mg/ml, 24 h, vs control, probe set 11747747_a_at",2.02
same,"Fold change, LDLR","10 mg/ml, 24 h, vs control, probe set 11748045_x_at",2.84
same,"Fold change, GBA///GBAP1","10 mg/ml, 24 h, vs control, probe set 11748292_a_at",2.57
same,"Fold change, POR","10 mg/ml, 24 h, vs control, probe set 11748368_x_at",2.03
same,"Fold change, PGS1","10 mg/ml, 24 h, vs control, probe set 11748428_a_at",2.41
same,"Fold change, DHCR24","10 mg/ml, 24 h, vs control, probe set 11749042_a_at",2.15
same,"Fold change, EBP","10 mg/ml, 24 h, vs control, probe set 11749332_x_at",2.66
same,"Fold change, PTGS1","10 mg/ml, 24 h, vs control, probe set 11749730_a_at",3.89
same,"Fold change, GBA","10 mg/ml, 24 h, vs control, probe set 11750975_x_at",2.68
same,"Fold change, GBA","10 mg/ml, 24 h, vs control, probe set 11751085_a_at",3.02
same,"Fold change, GBA","10 mg/ml, 24 h, vs control, probe set 11751086_x_at",2.37
same,"Fold change, GBA///GBAP1","10 mg/ml, 24 h, vs control, probe set 11751098_a_at",3.03
same,"Fold change, GBA///GBAP1","10 mg/ml, 24 h, vs control, probe set 11751099_x_at",2.75
same,"Fold change, DHCR24","10 mg/ml, 24 h, vs control, probe set 11751337_a_at",2.27
same,"Fold change, DHCR24","10 mg/ml, 24 h, vs control, probe set 11751338_x_at",2.26
same,"Fold change, FADS1///MIR1908","10 mg/ml, 24 h, vs control, probe set 11752670_a_at",4.05
same,"Fold change, GBA///GBAP1","10 mg/ml, 24 h, vs control, probe set 11753439_a_at",2.64
same,"Fold change, GBA///GBAP1","10 mg/ml, 24 h, vs control, probe set 11754819_x_at",2.59
same,"Fold change, HMGCS1","10 mg/ml, 24 h, vs control, probe set 11754918_s_at",2.32
same,"Fold change, FADS2","10 mg/ml, 24 h, vs control, probe set 11754939_x_at",2.11
same,"Fold change, LPCAT3","10 mg/ml, 24 h, vs control, probe set 11755123_x_at",2.37
same,"Fold change, FADS1///MIR1908","10 mg/ml, 24 h, vs control, probe set 11755251_x_at",4.13
same,"Fold change, APOD","10 mg/ml, 24 h, vs control, probe set 11756065_x_at",0.24
same,"Fold change, LPCAT3","10 mg/ml, 24 h, vs control, probe set 11757008_a_at",2.86
same,"Fold change, LPCAT3","10 mg/ml, 24 h, vs control, probe set 11757009_x_at",2.10
same,"Fold change, FDPS","10 mg/ml, 24 h, vs control, probe set 11758249_s_at",2.10
same,"REadj2, ABCA1",[1],979.20
same,"REadj2, ABHD4",[1],65.43
same,"REadj2, ABHD5",[1],212.72
same,"REadj2, ACAT2",[1],1280.94
same,"REadj2, AKR1C1",[1],3725.47
same,"REadj2, AKR1C2",[1],209.16
same,"REadj2, CH25H",[1],60.89
same,"REadj2, CYP51A1///LRRD1",[1],1291.92
same,"REadj2, DHCR7",[1],695.09
same,"REadj2, HMGCR",[1],395.78
same,"REadj2, HSD17B7",[1],91.10
same,"REadj2, HSD17B14",[1],46.74
same,"REadj2, IDI1",[1],1244.81
same,"REadj2, LPIN1",[1],240.89
same,"REadj2, LRP8",[1],93.15
same,"REadj2, MSMO1",[1],1789.72
same,"REadj2, MVD",[1],262.34
same,"REadj2, NEU1",[1],555.40
